Assays:
Format in all cases: cell-based
[1] = system: Staphylococcus aureus FDA 209P; experiment: MIC, standard serial dilution method; conditions: Muller-Hinton agar medium, 37° C.
[2] = system: Staphylococcus aureus Smith; experiment: MIC, standard serial dilution method; conditions: Muller-Hinton agar medium, 37° C.
[3] = system: Staphylococcus aureus MS 9610; experiment: MIC, standard serial dilution method; conditions: Muller-Hinton agar medium, 37° C.
[4] = system: Staphylococcus aureus No. 5 (MRSA); experiment: MIC, standard serial dilution method; conditions: Muller-Hinton agar medium, 37° C.
[5] = system: Staphylococcus aureus No. 17 (MRSA); experiment: MIC, standard serial dilution method; conditions: Muller-Hinton agar medium, 37° C.
[6] = system: Staphylococcus aureus MS 16526; experiment: MIC, standard serial dilution method; conditions: Muller-Hinton agar medium, 37° C.
[7] = system: Staphylococcus aureus TY-0428; experiment: MIC, standard serial dilution method; conditions: Muller-Hinton agar medium, 37° C.
[8] = system: Micrococcus luteus FDA 16; experiment: MIC, standard serial dilution method; conditions: Muller-Hinton agar medium, 37° C.
[9] = system: Micrococcus luteus IFO 3333; experiment: MIC, standard serial dilution method; conditions: Muller-Hinton agar medium, 37° C.
[10] = system: Micrococcus luteus PIC 1001; experiment: MIC, standard serial dilution method; conditions: Muller-Hinton agar medium, 37° C.
[11] = system: Bacillus anthracis; conditions: Muller-Hinton agar medium, 37° C.
[12] = system: Bacillus subtilis NRRL B-558; experiment: MIC, standard serial dilution method; conditions: Muller-Hinton agar medium, 37° C.
[13] = system: Bacillus subtilis PCI 219; experiment: MIC, standard serial dilution method; conditions: Muller-Hinton agar medium, 37° C.
[14] = system: Bacillus cereus ATCC 10702; experiment: MIC, standard serial dilution method; conditions: Muller-Hinton agar medium, 37° C.
[15] = system: Corynebacterium bovis 1810; experiment: MIC, standard serial dilution method; conditions: Muller-Hinton agar medium, 37° C.
[16] = system: Escherichia coli NIHJ; experiment: MIC, standard serial dilution method; conditions: Muller-Hinton agar medium, 37° C.
[17] = system: Escherichia coli K-12; experiment: MIC, standard serial dilution method; conditions: Muller-Hinton agar medium, 37° C.
[18] = system: Escherichia coli BEM 11; experiment: MIC, standard serial dilution method; conditions: Muller-Hinton agar medium, 37° C.
[19] = system: Escherichia coli BEM 1121; experiment: MIC, standard serial dilution method; conditions: Muller-Hinton agar medium, 37° C.
[20] = system: Escherichia coli BE 1186; experiment: MIC, standard serial dilution method; conditions: Muller-Hinton agar medium, 37° C.
[21] = system: Shigella dysenteria JS 11910; experiment: MIC, standard serial dilution method; conditions: Muller-Hinton agar medium, 37° C.
[22] = system: Escherichia coli K-12 ML 1692; experiment: MIC, standard serial dilution method; conditions: Muller-Hinton agar medium, 37° C.
Method: (§1) The antibacterial activities of the amythiamicin amide derivative of the general formula (I) according to this invention are now concretely described. Compounds No. 1 to No. 11 according to this invention, which were respectively prepared in Examples 1 to 11 hereinafter given, were tested as the test compounds for their minimum inhibitory concentrations (MIC.) (μg/ml) against growth of a variety of test microorganisms by a standard serial dilution method. In the tests, the incubation medium used was Muller-Hinton agar medium and the incubation temperature was 37° C. The test results are shown as antibacterial spectra in the following Tables 2 and 3.

[23] = system: Shigella clexnerl JS 11749; experiment: MIC, standard serial dilution method; conditions: Muller-Hinton agar medium, 37° C.
Method: as §1

[24] = system: Shigella sonnei JS 11746; experiment: MIC, standard serial dilution method; conditions: Muller-Hinton agar medium, 37° C.
Method: as §1

[25] = system: Salmonella typhi T-63; experiment: MIC, standard serial dilution method; conditions: Muller-Hinton agar medium, 37° C.
[26] = system: Salmonella enteritidis 1891; experiment: MIC, standard serial dilution method; conditions: Muller-Hinton agar medium, 37° C.
[27] = system: Proteus vulgaris OX 19; experiment: MIC, standard serial dilution method; conditions: Muller-Hinton agar medium, 37° C.
[28] = system: Proteus mirabilis IFM OM-9; experiment: MIC, standard serial dilution method; conditions: Muller-Hinton agar medium, 37° C.
[29] = system: Providencia rettgeri GN 311; experiment: MIC, standard serial dilution method; conditions: Muller-Hinton agar medium, 37° C.
[30] = system: Providencia rettgeri GN 466; experiment: MIC, standard serial dilution method; conditions: Muller-Hinton agar medium, 37° C.
[31] = system: Serratia marcescens; experiment: MIC, standard serial dilution method; conditions: Muller-Hinton agar medium, 37° C.
[32] = system: Pseudomonas aeruginosa A3; experiment: MIC, standard serial dilution method; conditions: Muller-Hinton agar medium, 37° C.
[33] = system: Pseudomonas aeruginosa GN315; experiment: MIC, standard serial dilution method; conditions: Muller-Hinton agar medium, 37° C.
[34] = system: Klebsiella pneumonia PCI 602; experiment: MIC, standard serial dilution method; conditions: Klebsiella pneumonia PCI 602 (Table 2); Muller-Hinton agar medium, 37° C.
[35] = system: Candida albicans 3147; experiment: MIC, standard serial dilution method; conditions: Muller-Hinton agar medium, 37° C.
[36] = system: Mycobacterium smegmatis ATCC 607; experiment: MIC, standard serial dilution method; conditions: Muller-Hinton agar medium, 37° C.

SMILES | Minimum growth inhibitory concentrations (MIC.) [1] [µg/mL] | Minimum growth inhibitory concentrations (MIC.) [2] [µg/mL] | Minimum growth inhibitory concentrations (MIC.) [3] [µg/mL] | Minimum growth inhibitory concentrations (MIC.) [4] [µg/mL] | Minimum growth inhibitory concentrations (MIC.) [5] [µg/mL] | Minimum growth inhibitory concentrations (MIC.) [6] [µg/mL] | Minimum growth inhibitory concentrations (MIC.) [7] [µg/mL] | Minimum growth inhibitory concentrations (MIC.) [8] [µg/mL] | Minimum growth inhibitory concentrations (MIC.) [9] [µg/mL] | Minimum growth inhibitory concentrations (MIC.) [10] [µg/mL] | Minimum growth inhibitory concentrations (MIC.) [11] [µg/mL] | Minimum growth inhibitory concentrations (MIC.) [12] [µg/mL] | Minimum growth inhibitory concentrations (MIC.) [13] [µg/mL] | Minimum growth inhibitory concentrations (MIC.) [14] [µg/mL] | Minimum growth inhibitory concentrations (MIC.) [15] [µg/mL] | Minimum growth inhibitory concentrations (MIC.) [16] [µg/mL] | Minimum growth inhibitory concentrations (MIC.) [17] [µg/mL] | Minimum growth inhibitory concentrations (MIC.) [18] [µg/mL] | Minimum growth inhibitory concentrations (MIC.) [19] [µg/mL] | Minimum growth inhibitory concentrations (MIC.) [20] [µg/mL] | also measured
CNC(=O)CC1NC(=O)c2csc(n2)-c2ccc(-c3nc(C(=O)NCCCCCC(=O)OC)cs3)nc2-c2csc(n2)-c2csc(n2)C(C(C)C)NC(=O)CNC(=O)c2csc(n2)C(C(C)C)NC(=O)c2nc1sc2C (stereo not shown) [Compound No. 1] | 50 | > 100 | > 100 | > 100 | > 100 | > 100 | > 100 | > 100 | > 100 | 3.13 | 0.98 | > 100 | > 100 | 3.13 | > 100 | > 100 | > 100 | > 100 | > 100 | > 100 | Minimum growth inhibitory concentrations (MIC.) [21]: > 100 µg/mL; Minimum growth inhibitory concentrations (MIC.) [22]: > 100 µg/mL; Minimum growth inhibitory concentrations (MIC.) [23]: > 100 µg/mL; Minimum growth inhibitory concentrations (MIC.) [24]: > 100 µg/mL; Minimum growth inhibitory concentrations (MIC.) [25]: > 100 µg/mL; Minimum growth inhibitory concentrations (MIC.) [26]: > 100 µg/mL; Minimum growth inhibitory concentrations (MIC.) [27]: > 100 µg/mL; Minimum growth inhibitory concentrations (MIC.) [28]: > 100 µg/mL; Minimum growth inhibitory concentrations (MIC.) [29]: > 100 µg/mL; Minimum growth inhibitory concentrations (MIC.) [30]: > 100 µg/mL; Minimum growth inhibitory concentrations (MIC.) [31]: > 100 µg/mL; Minimum growth inhibitory concentrations (MIC.) [32]: > 50 µg/mL; Minimum growth inhibitory concentrations (MIC.) [33]: > 100 µg/mL; Minimum growth inhibitory concentrations (MIC.) [34]: > 100 µg/mL; Minimum growth inhibitory concentrations (MIC.) [35]: > 100 µg/mL
CNC(=O)CC1NC(=O)c2csc(n2)-c2ccc(-c3nc(C(=O)NCCCCCC(=O)O)cs3)nc2-c2csc(n2)-c2csc(n2)C(C(C)C)NC(=O)CNC(=O)c2csc(n2)C(C(C)C)NC(=O)c2nc1sc2C (stereo not shown) [Compound No. 2] | 0.1 | 0.1 | 0.2 | 0.2 | 0.2 | 0.2 | 0.2 | 0.39 | 0.39 | 0.1 | < 0.03 | 1.56 | 0.2 | 0.1 | 0.31 | > 100 | > 100 | > 100 | > 100 | > 100 | Minimum growth inhibitory concentrations (MIC.) [21]: 3.13 µg/mL; Minimum growth inhibitory concentrations (MIC.) [22]: > 100 µg/mL; Minimum growth inhibitory concentrations (MIC.) [23]: > 100 µg/mL; Minimum growth inhibitory concentrations (MIC.) [24]: > 100 µg/mL; Minimum growth inhibitory concentrations (MIC.) [25]: > 100 µg/mL; Minimum growth inhibitory concentrations (MIC.) [26]: 6.25 µg/mL; Minimum growth inhibitory concentrations (MIC.) [27]: > 100 µg/mL; Minimum growth inhibitory concentrations (MIC.) [28]: > 100 µg/mL; Minimum growth inhibitory concentrations (MIC.) [29]: > 100 µg/mL; Minimum growth inhibitory concentrations (MIC.) [30]: > 100 µg/mL; Minimum growth inhibitory concentrations (MIC.) [31]: > 100 µg/mL; Minimum growth inhibitory concentrations (MIC.) [32]: > 50 µg/mL; Minimum growth inhibitory concentrations (MIC.) [33]: > 100 µg/mL; Minimum growth inhibitory concentrations (MIC.) [34]: > 100 µg/mL; Minimum growth inhibitory concentrations (MIC.) [35]: > 100 µg/mL
CNC(=O)CC1NC(=O)c2csc(n2)-c2ccc(-c3nc(C(=O)NCCCN(C)CCCN)cs3)nc2-c2csc(n2)-c2csc(n2)C(C(C)C)NC(=O)CNC(=O)c2csc(n2)C(C(C)C)NC(=O)c2nc1sc2C (stereo not shown) [Compound No. 4] | 12.5 | 12.5 | 50 | > 100 | > 100 | > 100 | > 100 | > 100 | > 100 | 3.12 | 3.12 | > 100 | > 100 | 6.25 | > 100 | > 100 | > 100 | > 100 | > 100 | > 100 | Minimum growth inhibitory concentrations (MIC.) [21]: > 100 µg/mL; Minimum growth inhibitory concentrations (MIC.) [22]: > 100 µg/mL; Minimum growth inhibitory concentrations (MIC.) [23]: > 100 µg/mL; Minimum growth inhibitory concentrations (MIC.) [24]: > 100 µg/mL; Minimum growth inhibitory concentrations (MIC.) [25]: > 100 µg/mL; Minimum growth inhibitory concentrations (MIC.) [26]: > 100 µg/mL; Minimum growth inhibitory concentrations (MIC.) [27]: > 100 µg/mL; Minimum growth inhibitory concentrations (MIC.) [28]: > 100 µg/mL; Minimum growth inhibitory concentrations (MIC.) [29]: > 100 µg/mL; Minimum growth inhibitory concentrations (MIC.) [30]: > 100 µg/mL; Minimum growth inhibitory concentrations (MIC.) [31]: > 100 µg/mL; Minimum growth inhibitory concentrations (MIC.) [32]: > 100 µg/mL; Minimum growth inhibitory concentrations (MIC.) [33]: > 100 µg/mL; Minimum growth inhibitory concentrations (MIC.) [34]: > 100 µg/mL; Minimum growth inhibitory concentrations (MIC.) [36]: > 100 µg/mL; Minimum growth inhibitory concentrations (MIC.) [35]: > 100 µg/mL

Source: US6043217A, “Amide derivative of amythiamicin” (Zaidan Hojin Biseibutsu Kagaku Kenyu Kai, priority 1996, dated 2000)
